Test [1] relates to S. cerevisiae. Nature of the test: Fluconazole MIC test (broth microdilution) with Hsp90 or calcineurin inhibitors. It is filed as cell-based, Saccharomyces cerevisiae. The procedure: (§1) Cell densities of overnight cultures were determined and dilutions were prepared such that ˜10^3 cells were inoculated into each well. Radicicol (RAD, A.G. Scientific, Inc.) and geldanamycin (GdA, Alexis Biochemicals) were employed to inhibit Hsp90 at the concentrations indicated in the figure legends (1-5 μM). Cyclosporin A (CsA, CalBiochem) was employed to inhibit calcineurin at a concentration of 20 μM. Dimethyl sulfoxide (DMSO, Sigma-Aldrich Co.) was the solvent for RAD, GdA, and CsA. Thus, the maximum final DMSO concentration (0.14%) was included in FL MIC tests performed in the absence of RAD, GdA, or CsA to control for any solvent effects.
After 48 hours, plates were sealed with a clear film (Axygen Scientific), re-suspended by agitation, and absorbance was determined at 595 nm with the Multiskan Ascent photometer (Thermo Labsystems, Thermo Electron Corporation). Absorbance values were corrected for background from the corresponding medium. MICs were determined as the concentration of FL that inhibits fungal growth by 50% relative to the FL-free growth control. The MIC of each strain was tested at least two independent times in duplicate. Most strains were tested in rich medium (half-strength YPD) and SD medium. C. albicans clinical isolates were also tested in the synthetic defined medium that is the standard for clinical testing, RPMI (9).
For orientation: In broth dilution the organism is exposed to a series of concentrations in liquid medium.

The test system of test [2] is S. cerevisiae. Kind of test: Serial cell dilution (spotting) assay with or without fluconazole. It is filed as cell-based, Saccharomyces cerevisiae. The following applies: GdA 5 μM or RAD 1 μM; 64 μg/ml fluconazole; rich medium, 30° C.; concordant by MIC testing. The procedure: FIG. 4. Hsp90 and calcineurin are required for FL resistance acquired through diverse mutations. […] Top two panels, deletion mutants. Bottom panel, control strains obtained by rapid (R1-3) and gradual (G1-3) selection. (A) Hsp90 was inhibited by GdA (5 μM) or RAD (1 μM), as indicated. (B) Calcineurin was inhibited by cyclosporin A (CsA, 20 μM).
(§2) Strains were grown to saturation in SD medium and cell concentrations were standardized based on optical density. Five-fold dilutions, starting from ˜4×10^6 cells/ml, were spotted on media, as indicated in the figure legends, using a spotter (Frogger, V&P Scientific, Inc). The plates were photographed after 2-3 days in the dark at the indicated temperature. For all spotting assays in which Hsp90 or calcineurin inhibitors were employed, the corresponding plates without these inhibitors was supplemented with the maximum final concentration of DMSO used (0.14%), as a solvent control.

The test system of test [3] is C. albicans. Nature of the test: Selection of fluconazole-resistant mutants on plates. The following applies: 128 μg/ml fluconazole and 1 μM RAD; CAI4 and CaERG3/erg3; 7 days, 30° C. The class given is cell-based, Candida albicans. As to the method: Strains of C. albicans were grown at 30° C. in SD prior to plating ˜10^4 cells on SD plates with 128 μg/ml FL or with both 128 μg/ml FL and 1 μM RAD. Plates were photographed after 7 days at 30° C. in the dark.

Test [4] has as its system C. albicans. Kind of test: Serial cell dilution (spotting) assay, growth with RAD. The class given is cell-based, Candida albicans. The following applies: 1 μM RAD; CAI4 and CaERG3/erg3; SD medium, 30° C., two days. As to the method:
Serial dilutions of CAI4 and CaERG3/erg3 were spotted on SD medium (upper panel) and medium supplemented with 1 μM RAD (bottom panel). Plates were photographed after two days at 30° C. in the dark.
as §2

For test [5], the system named is C. albicans. Kind of test: Fluconazole MIC test (broth microdilution). The class given is cell-based, Candida albicans. The conditions noted are these: CAI4 and CaERG3/erg3. The procedure: as §1
After 48 hours, plates were sealed with a clear film (Axygen Scientific), re-suspended by agitation, and absorbance was determined at 595 nm with the Multiskan Ascent photometer (Thermo Labsystems, Thermo Electron Corporation). Absorbance values were corrected for background from the corresponding medium. […] The MIC of each strain was tested at least two independent times in duplicate. Most strains were tested in rich medium (half-strength YPD) and SD medium. C. albicans clinical isolates were also tested in the synthetic defined medium that is the standard for clinical testing, RPMI (9).

In test [6] the test system is C. albicans. The conditions noted are these: synthetic defined media; previous studies; cited from earlier work.
The test system of test [7] is A. terreus soil isolate ATCC 10020. Kind of test: Etest strip drug resistance. It is filed as cell-based, Aspergillus terreus. The conditions noted are these: rich medium, 35° C., 36 hours. The procedure:
FIG. 6. Hsp90 potentiates resistance to different drugs in C. albicans and A. terreus. […] Plates contained the Hsp90 inhibitor RAD (5 μM) or the calcineurin inhibitor CsA (20 μM). The MIC value is where the inhibition ellipse intersects the strip.
Resistance of C. albicans clinical isolate T118 and A. terreus soil isolate ATCC 10020 to FL, voriconazole (VO), and caspofungin (CS) was determined with Etest strips (AB Biodisk) on rich medium (half-strength YPD). For C. albicans, standardized inoculum was prepared as described above and ˜10^5 cells were plated on medium with the Hsp90 inhibitor RAD (5 μM), the calcineurin inhibitor CsA (20 μM), or the solvent control (0.14% DMSO), prior to application of a test strip. Plates were photographed after 36 hours at 30° C. in the dark. For A. terreus, inoculum was prepared according to a standard protocol (15) and ˜10^5 conidia were plated prior to application of a test strip. Plates were photographed after 36 hours at 35° C. in the dark.

Setting [8] is: GdA 5 μM or RAD 5 μM, SD medium, 30° C.

Entries after “also recorded” stand apart in the source; their conditions may differ.

For `C[C@@H]1C[C@H]2O[C@@H]2/C=C\C=C\C(=O)Cc2c(Cl)c(O)cc(O)c2C(=O)O1` [RAD, radicicol], the “effect of inhibitor alone on growth” value in test [1] (GdA 5 μM or RAD 5 μM, 0 μg/ml fluconazole, SD medium, 30° C.) is on record as “did not impair growth on their own”. For the same molecule, in test [1] (setting [8]), the “effect on fluconazole resistance of G1-3 strains (gradual selection)” value is listed as “neither GdA nor RAD altered resistance”, the “effect on fluconazole resistance of R1-3 strains (rapid selection)” value is on record as “abolished fluconazole resistance” and the “effect on fluconazole sensitivity of progenitor strains” value was “had no effect”. Also, in test [2], the “effect on fluconazole resistance of eleven deletion mutants” value is reported as “reduced the fluconazole resistance in all of them”. Further, the “colonies recovered on selection plates with fluconazole plus RAD” value in test [3] was “no colonies were recovered”. Also, the “effect on growth in the absence of fluconazole” value in test [4] is “does not impair growth; also recorded: had no effect on growth”.

`OC(Cn1cncn1)(Cn1cncn1)c1ccc(F)cc1F` [fluconazole]: the “fluconazole concentration at which growth is completely arrested” value in test [1] (all strains (Lo90, Re90, Hi90), SD medium, 23° C.) worked out at 16 µg/mL; in test [5] it was 16 µg/mL. Further, the “fluconazole sensitivity of clinical isolate T118” value in test [6] was “sensitive”.

Turning to `C[C@@H](c1ncncc1F)[C@](O)(Cn1cncn1)c1ccc(F)cc1F` [voriconazole], in test [1] (all FLR strains obtained by rapid fluconazole selection), the “voriconazole resistance of FLR strains” value is listed as “resistant”. Further, the “sensitivity of A. terreus to voriconazole relative to fluconazole” value in test [7] is “much more sensitive to this azole than to fluconazole”.

The values above are taken from patent US8343913B1, “Hsp90, buffering and drug resistance” (priority 2004, dated 2013).
